This is an account of results in patent US4322420A, “Method of using 4-anilinoquinazoline derivatives as analgesic and anti-inflammatory agents” (Sankyo Company Limited, priority 1978, dated 1982).

Read-outs that look alike come from different tables or passages of the source.

Assay [1] relates to bradykinin-induced nociceptive stimulus. Nature of the assay: Test for analgesic activity (bradykinin-induced nociceptive stimulus, oral administration). As to conditions: Cavia porcellus, read-out: ID50 Analgesic Activity. The format is in vivo, female Hartley guinea pigs. The method, then: This test employs a bradykinin-induced nociceptive stimulus and is a partially modified version of the test described by Deffenu [J. Pharm. Pharmac. […] The test animals were female Hartley guinea pigs having a body weight of from 350 g to 400 g. The guinea pigs were divided into groups, each group containing from 5 to 10 animals. The test animals were cannulated into the carotid artery retrogradely under the anesthesia induced by intraperitoneal injection of 20 mg/kg of pentobarbital. The guinea pigs were allowed to recover from the anesthesia for at least 3 hours before the tests commenced.
The test compounds listed in the following Table 1 were administered orally. Immediately before administration of each test compound and then 15, 30, 60, 90 and 120 minutes after administration, each guinea pig was administered with 0.5 μg of bradykinin through the cannula. Turning of the head or twisting of the front legs upon injection was taken as a sign of nociceptive response. The test compounds were administered at various doses and the inhibition rate was determined accordingly.
(§1) For both of the above tests, the ID50 was calculated by the method of Litchfield and Wilcoxon [J. Pharmacol. Exptl. Therap.

Assay [2] has as its system carrageenin-induced oedema of the right hind paw. Description: Test for anti-inflammatory activity (carrageenin-induced paw oedema, oral administration). The format is in vivo, Male Wistar-Imamichi rats. As to conditions: Rattus norvegicus, read-out: ID50 Anti-inflammatory Activity. The method, then: Male Wistar-Imamichi rats, each weighing approximately 150 g, were used in these experiments and were divided into groups, each containing 5 animals. Each of the test compounds listed in Table 1 was administered orally, at various doses, to the rats and then, 30 minutes after oral administration,0.05 ml of a 1% w/v carrageenin suspension was subcutaneously injected into the sole of the right hind paw to induce oedema. The volume of the paw was measured both before and 3 hours after injection of the carrageenin by the method of Winder et al [Arch. Int. Pharmacodyn. […] The difference between the volume of the paw before and after injection was defined as the oedema intensity.
as §1
In general terms: The carrageenan paw model is a standard test of acute inflammation.

The mark [3] stands for this setting: per os, guinea pigs, 0.5 μg bradykinin via carotid cannula before and 15, 30, 60, 90 and 120 min after dosing, Litchfield and Wilcoxon.
[4] abbreviates: per os, rats, 0.05 ml of 1% w/v carrageenin 30 min after dosing, paw volume 3 hours after injection, Litchfield and Wilcoxon.

With `CC(=O)Oc1ccccc1C(=O)O` [Aspirin, reference compound], the ED50 in assay [1] worked out at 280 mg/kg; in assay [2], 145 mg/kg.
Consider `Clc1ccc2c(Nc3ccccc3)ncnc2c1` [Compound 5, 4-Anilino-7-chloroquinazoline], for which the ED50 was determined as 25 mg/kg in assay [1] (setting [3]) and 28 mg/kg in assay [2] (setting [4]).
`FC(F)(F)c1ccc2c(Nc3ccccc3)ncnc2c1` [Compound 17, 4-Anilino-7-trifluoromethylquinazoline]: the figures for the ED50 in assay [1] (setting [3]) and in assay [2] (setting [4]) were 16.5 mg/kg and 20 mg/kg, respectively.
In the case of `CN(c1ccccc1)c1ncnc2cc(Cl)ccc12` [Compound 55, 7-Chloro-4-(N-methylanilino)quinazoline], the ED50 is 50 mg/kg in assay [1] (setting [3]) and 36 mg/kg in assay [2] (setting [4]).
In the same order, the values of `CN(c1ccccc1)c1ncnc2cc(C(F)(F)F)ccc12` [Compound 73, 4-(N-Methylanilino)-7-trifluoromethylquinazoline] are 31 mg/kg and 15.5 mg/kg.
`Cc1cccc(Nc2ccccc2C(=O)O)c1C` [Mefenamic acid, reference compound]: the ED50 was 72 mg/kg in assay [1] (setting [3]) and 50 mg/kg in assay [2] (setting [4]).
